What was measured:
[1] = test system: colon tumor cell lines; conditions: cited from earlier work
[2] = test system: CCL28 promoter; test: CCL28 promoter luciferase reporter gene activity with β-catenin overexpression; type: cell-based, human; conditions: FIG. 2D
Source text: (§1) Wnt/β-catenin reporter plasmid M50 Super 8X TOPFlash (Addgene plasmid #12456) and mutant control M51 Super 8X FOPFlash (Addgene plasmid #12457) are gifts from Randall Moon. The promoter of the human CCL28 gene (2.8 kb, −2576/+205 relative to the transcriptional start site) was cloned into the firefly luciferase reporter gene construct pGL4. Mutations of potential TCF/LEF binding sites on the CCL28 promoter were introduced using the Hieff Mut™ Multisite Directed Mutagenesis Kit (Yeasen, Shanghai) to produce a mutant CCL28 promoter report construct (pGL4-CCL28.mut). The plasmids were transfected using a jetPRIME transfection reagent (Polybus Transfection). Transfection efficiency was standardized by co-transfection with a pRL-CMV reporter gene containing the Ranilla Luciferase gene. Firefly and Ranilla luciferase activities were measured using a Dual-Glo luciferase assay system (Promega).
(§2) In this Example, the correlation between CCL28 and β-catenin signaling pathway structure is analyzed in combination with bioinformatics, and then the relationship between the two is verified in the cell model. […] After using β-catenin/TCF, the transcriptional activity of CCL28 promoter was detected after shRNA knockdown of TCF/LEF transcription factor family members or overexpression of TCF/LEF members.

[3] = test system: CCL28 protein; test: CCL28 protein expression in stomach of H. felis/MNU in situ gastric cancer mice (Western blotting, ELISA); type: in vivo, mouse; conditions: intraperitoneal injection; Western blotting (FIG. 3A) and ELISA (FIG. 3B)
Source text: The proteins in gastric cancer cell line and mouse gastric tissue were lysed with RIPA lysate (Thermo Scientific) added with protease inhibitor (Roche), and the protein concentration was detected using BCA Protein Assay Reagent (Thermo Scientific). The detected proteins were as follows: β-catenin (Abcam), CCL28 (R & D Systems), active β-catenin (Merck), GAPDH (Abcam) and β-tubulin (Abcam).
In order to establish gastric cancer mouse mode induced by Helicobacter felis (H. felis) and N-Methyl-N-nitrosourea (MNU), 8-week-old wild-type mice were fed by gavage with H. felis strain (ATCC 49179) three times a week, followed by given drinking water containing 240 ppm MNU every other week for a total of 12 weeks.

[4] = test system: Wnt pathway reporter gene TOPflash; test: Wnt pathway reporter gene TOPflash luciferase activity with β-catenin overexpression; type: cell-based, human; conditions: FIG. 2D
Source text: as §1, §2

Cc1cc(/C=C2\SC(=O)N(c3ccccc3)C2=O)c(C)n1-c1cccnc1 [iCRT14]
cell cycle arrest [1]: G0/G1 arrest | up-regulation effect of β-catenin on CCL28 promoter activity [2]: reduces the up-regulation effect of β-catenin on CCL28 promoter activity | expression of CCL28 protein in the stomach [3]: significantly reduces the expression of CCL28 protein in the stomach | activity of Wnt pathway reporter gene TOPflash [4]: reduced the activity of both reporter genes
